Where a name gives a salt, the structure may show the parent alone.
How the values were obtained:
Format in all cases: cell-based
[1] = in vitro; conditions: human
Protocol: (§1) Human PBMC Preparation. Fresh human PBMCs were isolated from screened donors, seronegative for HIV and HBV (Biological Specialty Corporation, Colmar, Pa.). Cells were pelleted/washed 2-3 times by low speed centrifugation and resuspension in Dulbecco's phosphate buffered saline (PBS) to remove contaminating platelets. The leukophoresed blood was then diluted 1:1 with PBS and layered over 14 mL of Ficoll-Hypaque density gradient (Lymphocyte Separation Medium, Cell Grow #85-072-CL, density 1.078+/−0.002 g/mL) in a 50 mL centrifuge tube and then centrifuged for 30 min at 600×g. Banded PBMCs were gently aspirated from the resulting interface and subsequently washed twice with PBS by low speed centrifugation. After the final wash, cells were enumerated by trypan blue exclusion and re-suspended at 1×10^6 cells/mL in RPMI 1640 supplemented with 15% Fetal Bovine Serum (FBS), 2 mM L-glutamine, 100 U/mL penicillin, […] streptomycin, and 4 μg/mL Phytohemagglutinin (PHA; Sigma, St. Louis, Mo.; cat #L1668). The cells were allowed to incubate for 48-72 h at 37° C. After incubation, PBMCs were centrifuged and resuspended in RPMI 1640 with 15% FBS, L-glutamine, penicillin, streptomycin, non-essential amino acids (MEM/NEAA; Hyclone; cat #SH30238.01), and 20 U/mL recombinant human IL-2 (R&D Systems Inc., Minneapolis, Minn.; cat #202IL). PBMCs were maintained in this medium at a concentration of 1-2×10^6 cells/mL, with twice-weekly medium changes until they were used in the assay protocol. Monocytes-derived-macrophages were depleted from the culture as the result of adherence to the tissue culture flask.
(§2) PBMC Assay. For the standard PBMC assay, PHA stimulated cells from at least two normal donors were pooled (mixed together), diluted in fresh medium to a final concentration of 1×10^6 cells/mL, and plated in the interior wells of a 96 well round bottom microplate at 50 μL/well (5×10^4 cells/well) in a standard formate developed by the Infectious Disease Research Department of the SRI. Pooling (mixing) of mononuclear cells from more than one donor was used to minimize the variability observed between individual donors, which results from quantitative and qualitative differences in HIV infection and overall response to the PHA and IL-2 of primary lymphocyte populations. Each plate contains virus control wells (cells plus virus) and experimental wells (drug plus cells plus virus). Test drug dilutions were prepared at a 2× concentration in microtiter tubes and 100 μL of each concentration was placed in appropriate wells using the standard format. 50 μL of a predetermined dilution of virus stock was placed in each test well (final MOI≈0.1). Separate plates were prepared identically without virus for drug cytotoxicity studies using an MTS assay system (described below; cytotoxicity plates also include compound control wells containing drug plus media without cells to control for colored compounds that affect the MTS assay). The PBMC cultures were maintained for seven days following infection at 37° C., 5% CO2. After this period, cell-free supernatant samples were collected for analysis of reverse transcriptase activity, and compound cytotoxicity was measured by addition of MTS to the separate cytotoxicity plates for determination of cell viability. Wells were also examined microscopically and any abnormalities were noted.
(§3) MTS Staining for PBMC Viability to Measure Cytotoxicity. At assay termination, the uninfected assay plates were stained with the soluble tetrazolium-based dye MTS (CellTiter 96 Reagent, Promega) to determine cell viability and quantify compound toxicity. MTS is metabolized by the mitochondria enzymes of metabolically active cells to yield a soluble formazan product, allowing the rapid quantitative analysis of cell viability and compound cytotoxicity. […] At termination of the assay, […] of MTS reagent was added per well and the microtiter plates were then incubated at 37° C., 5% CO2 to assess cell viability. […]

[2] = test system: human PBMCs; experiment: in vitro; conditions: 7 days
Protocol: as §1, §2, §3

[3] = test system: panel of HIV-1 isolates in human PBMCs; experiment: PBMC antiviral assay against a panel of HIV-1 isolates (RT activity)
Protocol: Antiviral assays. To produce HIV-1 stocks, 293T cells were transfected with WT pNL4-3 or the SP1-V7A derivative and culture supernatants were collected 24 h post transfection. RT-normalized virus supernatants were used to infect MT-4 cells at room temperature for 30 min. Cells were then cultured in the presence of serial dilutions of compounds. At 4 d post-infection, the culture supernatants were subjected to RT assay to monitor viral replication. The 50% inhibitory concentrations (IC50s) were defined as compound concentrations that reduced RT levels to 50% those measured in the absence of inhibitor (DMSO only controls) using GraphPad Prism 6 software. The IC50s in primary peripheral blood mononuclear cells (PBMCs) were calculated with a multi-clade panel of HIV-1 isolates by Southern Research Institute (Frederick, Md.). The PBMCs were stimulated with phytohemagglutinin (PHA) and IL-2 prior to use in the antiviral assays.
Virus Isolates. Compound evaluation against a panel of HIV-1 isolates were performed by the Southern Research Institute (SRI). The viruses were chosen to include one isolate from each of the seven HIV-1 Group M envelope subtypes A, B, C, D, E, F, and G, as well as isolates from HIV-1 Groups O and N. In addition, various drug resistant HIV-1 isolates were included for evaluation. The HIV-1 isolates selected include CCR5-tropic and CXCR4-tropic isolates. Unless otherwise noted, all virus isolates were obtained from the NIH AIDS Research and Reference Reagent Program. Virus isolate 1022-48 was obtained from Dr. William A. Schief of Merck Research Laboratories. MDR769 and MDR807 were obtained from Dr. Thomas C. Merigan of Stanford University. A low passage stock of each virus was prepared using fresh human PBMCs and stored in liquid nitrogen. Pre-titered aliquots of each virus were removed from the freezer and thawed rapidly to rt in a biological safety cabinet immediately before use.
as §1
PBMC Assay. For the standard PBMC assay, PHA stimulated cells from at least two normal donors were pooled (mixed together), diluted in fresh medium to a final concentration of 1×10^6 cells/mL, and plated in the interior wells of a 96 well round bottom microplate at 50 μL/well (5×10^4 cells/well) in a standard formate developed by the Infectious Disease Research Department of the SRI. […]

[4] = Human immunodeficiency virus 1, IIIB, PBMC, isolate A17 (IIIB)
[5] = Human immunodeficiency virus 1, NL43, PBMC, isolate NL4-3, PBMC
[6] = Human immunodeficiency virus 1, NL43, PBMC, isolate NL4-3 gp41(36G) N42T, N43K, PBMC
[7] = Human immunodeficiency virus 1, PBMC, isolate 92BR030, PBMC
[8] = Human immunodeficiency virus 1, PBMC, isolate 92RW009, PBMC
[9] = Human immunodeficiency virus 1, PBMC, isolate 92UG001, PBMC
[10] = Human immunodeficiency virus 1, PBMC, isolate 93BR020, PBMC
[11] = Human immunodeficiency virus 1, PBMC, isolate 93BR029, PBMC
[12] = Human immunodeficiency virus 1, PBMC, isolate 93IN101, PBMC
[13] = Human immunodeficiency virus 1, PBMC, isolate 99UGA07412MI, PBMC
[14] = Human immunodeficiency virus 1, PBMC, isolate 1022-48, PBMC
[15] = Human immunodeficiency virus 1, PBMC, isolate 1064-52, PBMC
[16] = Human immunodeficiency virus 1, PBMC, isolate 4736_4 (NL4-3), PBMC
[17] = Human immunodeficiency virus 1, PBMC, isolate BCF02, PBMC
[18] = Human immunodeficiency virus 1, PBMC, isolate CMU02, PBMC
[19] = Human immunodeficiency virus 1, PBMC, isolate JV1083, PBMC
[20] = Human immunodeficiency virus 1, PBMC, isolate MDR769, PBMC
[21] = Human immunodeficiency virus 1, PBMC, isolate YBF30, PBMC

## C=C(C)[C@@H]1CC[C@]2(CCNCCN3CCN(S(C)(=O)=O)CC3)CC[C@]3(C)[C@H](CC[C@@H]4[C@@]5(C)CC[C@H](OC(=O)CC(C)(C)C(=O)O)C(C)(C)[C@@H]5CC[C@]43C)[C@@H]12 [Compound 51ff, (3β)-17-[2-[[2-[4-(Methylsulfonyl)piperazin-1-yl]ethyl]amino]ethyl]-28-norlup-20(29)-en-3-ol, 3-(1-Hydrogen 2,2-Dimethylbutanedioate)]
[1]
  CC50 at 7 days: > 1000 nM
[2]
  CC50: > 1000 nM
[3]; [4]
  IC50: 1.8 nM
[3]; [5]
  IC50: 0.8 nM
[3]; [6]
  IC50: 1.4 nM
[3]; [7]
  IC50: > 1000 nM
[3]; [8]
  IC50: 39.4 nM
[3]; [9]
  IC50: < 0.15 nM
[3]; [10]
  IC50: 2.4 nM
[3]; [11]
  IC50: 1.1 nM
[3]; [12]
  IC50: 14.2 nM
[3]; [13]
  IC50: 4.3 nM
[3]; [14]
  IC50: 1.3 nM
[3]; [15]
  IC50: 0.7 nM
[3]; [16]
  IC50: 0.8 nM
[3]; [17]
  IC50: 2.8 nM
[3]; [18]
  IC50: 217 nM
[3]; [19]
  IC50: 460 nM
[3]; [20]
  IC50: 1.7 nM
[3]; [21]
  IC50: 3.6 nM

## C=C(C)[C@@H]1CC[C@]2(CCNC3CCN(CCO)CC3)CC[C@]3(C)[C@H](CC[C@@H]4[C@@]5(C)CC[C@H](OC(=O)CC(C)(C)CC(=O)O)C(C)(C)[C@@H]5CC[C@]43C)[C@@H]12 [Compound 51f, (3β)-17-[2-[[1-(2-Hydroxyethyl)piperidin-4-yl]amino]ethyl]-28-norlup-20(29)-en-3-ol, 3-(Hydrogen 3,3-Dimethylpentanedioate), Bis(trifluoroacetate) Salt]
[1]
  CC50 at 7 days: > 1000 nM
[2]
  CC50: > 1000 nM
[3]; [4]
  IC50: 8.2 nM
[3]; [5]
  IC50: 4 nM
[3]; [6]
  IC50: 5.6 nM
[3]; [7]
  IC50: 100 nM
[3]; Human immunodeficiency virus 1, PBMC, isolate 92UG031, PBMC
  IC50: > 1000 nM
[3]; [11]
  IC50: 5.1 nM
[3]; [12]
  IC50: 89 nM
[3]; [13]
  IC50: 8.2 nM
[3]; [14]
  IC50: 18.9 nM
[3]; [16]
  IC50: 3.3 nM
[3]; [17]
  IC50: 4.6 nM
[3]; [18]
  IC50: 316 nM
[3]; [19]
  IC50: 477 nM
[3]; [20]
  IC50: 5.9 nM
[3]; Human immunodeficiency virus 1, PBMC, isolate MDR807, PBMC
  IC50: > 1000 nM
[3]; [21]
  IC50: 14.8 nM

## C=C(C)[C@@H]1CC[C@]2(CCNCCN3CCN(Cc4ccccc4)CC3)CC[C@]3(C)[C@H](CC[C@@H]4[C@@]5(C)CC[C@H](OC(=O)CC(C)(C)C(=O)O)C(C)(C)[C@@H]5CC[C@]43C)[C@@H]12 [Compound 51hh, (3β)-17-[2-[[2-[4-(Phenylmethyl)piperazin-1-yl]ethyl]amino]ethyl]-28-norlup-20(29)-en-3-ol, 3-(1-Hydrogen 2,2-Dimethylbutanedioate)]
[1]
  CC50 at 7 days: > 1000 nM
[2]
  CC50: > 1000 nM
[3]; [4]
  IC50: 6.1 nM
[3]; [5]
  IC50: 1.4 nM
[3]; [6]
  IC50: 3.8 nM
[3]; [7]
  IC50: > 1000 nM
[3]; [8]
  IC50: 10.4 nM
[3]; [9]
  IC50: 1.2 nM
[3]; [10]
  IC50: 3 nM
[3]; [11]
  IC50: 4.1 nM
[3]; [12]
  IC50: 5.6 nM
[3]; [13]
  IC50: 8 nM
[3]; [14]
  IC50: 3.2 nM
[3]; [15]
  IC50: 1.7 nM
[3]; [16]
  IC50: 1.4 nM
[3]; [17]
  IC50: 3.8 nM
[3]; [18]
  IC50: 11.1 nM
[3]; [19]
  IC50: 17.1 nM
[3]; [20]
  IC50: 4.4 nM
[3]; [21]
  IC50: 132 nM
[3]; isolate CMU02, PBMC
  IC50: 7.1 nM

## C=C(C)[C@@H]1CC[C@]2(CCNCCN3CCS(=O)(=O)CC3)CC[C@]3(C)[C@H](CC[C@@H]4[C@@]5(C)CC[C@H](OC(=O)CC(C)(C)C(=O)O)C(C)(C)[C@@H]5CC[C@]43C)[C@@H]12 [Compound 51ee, (3β)-17-[[[2-[2-(1,1-Dioxothiomorpholin-4-yl)]Ethyl]Amino]Ethyl]-28-norlup-20(29)-en-3-ol, 3-(1-Hydrogen 2,2-Dimethylbutanedioate)]
[1]
  CC50 at 7 days: > 1000 nM
[2]
  CC50: > 1000 nM
[3]; [4]
  IC50: 1.4 nM
[3]; [5]
  IC50: 0.8 nM
[3]; [6]
  IC50: 1.3 nM
[3]; [7]
  IC50: 455 nM
[3]; [8]
  IC50: 20.7 nM
[3]; [9]
  IC50: 0.4 nM
[3]; [10]
  IC50: 1.8 nM
[3]; [11]
  IC50: 0.9 nM
[3]; [12]
  IC50: 2.7 nM
[3]; [13]
  IC50: 2.2 nM
[3]; [14]
  IC50: 1.1 nM
[3]; [15]
  IC50: 0.5 nM
[3]; [16]
  IC50: 1 nM
[3]; [17]
  IC50: 1.7 nM
[3]; [18]
  IC50: 110 nM
[3]; [19]
  IC50: 126 nM
[3]; [20]
  IC50: 1.4 nM
[3]; [21]
  IC50: 8.4 nM

Source: patent publication US11236122B2, “Triterpene amine derivatives” (DFH THERAPEUTICS, priority 2018, dated 2022)
